Values quoted from earlier work in patent EP3196312B1, “EFFICIENT CONVERSION OF METHYLGLYOXAL INTO HYDROXYACETONE USING NOVEL ENZYMES AND APPLI CATIONS THEREOF” (Metabolic Explorer, priority 2016, dated 2017).

How the values were obtained:
[1] = target: T1, Escherichia coli YqhD variant YqhD*(G149E), SEQ ID NO: 9 (Escherichia coli, UniProt Q46856, G149E); settings: toward methylglyoxal and NADPH; as cited from WO 2011/012697
T1 sequence (Q46856 1-387 G149E): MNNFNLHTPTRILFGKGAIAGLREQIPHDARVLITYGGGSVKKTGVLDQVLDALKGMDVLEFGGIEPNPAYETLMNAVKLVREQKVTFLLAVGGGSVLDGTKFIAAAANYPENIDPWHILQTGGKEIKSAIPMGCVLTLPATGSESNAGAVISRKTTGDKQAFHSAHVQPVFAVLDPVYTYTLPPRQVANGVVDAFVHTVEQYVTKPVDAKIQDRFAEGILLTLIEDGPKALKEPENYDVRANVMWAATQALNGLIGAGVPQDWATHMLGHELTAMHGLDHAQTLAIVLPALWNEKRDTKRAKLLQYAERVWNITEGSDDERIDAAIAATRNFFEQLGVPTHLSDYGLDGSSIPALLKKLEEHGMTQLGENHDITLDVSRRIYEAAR

[2] = target: T2, Escherichia coli YqhD (alcohol dehydrogenase, Uniprot Q46856), wild type, SEQ ID NO: 7 (Escherichia coli, UniProt Q46856); settings: toward methylglyoxal and NADPH; as cited from WO 2011/012697
T2 sequence (Q46856 1-387): T1 sequence (Q46856 1-387 G149E)

What does the source list for CC(=O)C=O [methylglyoxal]?
Km [1]: 2920 µM; Km [2]: 2090 µM
